Measurements taken from patent publication US12668845B2, “Methods for predicting drug responsiveness in cancer patients” (Allarity Therapeutics Europe ApS, priority 2018, dated 2026).

How the values were obtained:
T47D = assay: Growth inhibition of cell lines treated with 2X-121; assay type: cell-based; conditions: Homo sapiens; cell line T47D, origin Breast; read-out: Measured growth inhibition IC50
HCC1143 = assay: as above; assay type: cell-based; conditions: Homo sapiens; cell line HCC1143, origin Breast; read-out: Measured growth inhibition IC50
MDA-MB-453 = assay: as above; assay type: cell-based; conditions: Homo sapiens; cell line MDA-MB-453, origin Breast; read-out: Measured growth inhibition IC50
BT-20 = assay: as above; assay type: cell-based; conditions: Homo sapiens; cell line BT-20, origin Breast; read-out: Measured growth inhibition IC50
HCT-116 = assay: as above; assay type: cell-based; conditions: Homo sapiens; cell line HCT-116, origin Colon; read-out: Measured growth inhibition IC50
SNU-423 = assay: as above; assay type: cell-based; conditions: Homo sapiens; cell line SNU-423, origin HCC; read-out: Measured growth inhibition IC50
ECC-1 = assay: as above; assay type: cell-based; conditions: Homo sapiens; cell line ECC-1, origin Endometrial; read-out: Measured growth inhibition IC50
SNG-II = assay: as above; assay type: cell-based; conditions: cell line SNG-II, origin Endometrial; read-out: Measured growth inhibition IC50
HEC-88nu = assay: as above; assay type: cell-based; conditions: cell line HEC-88nu, origin Endometrial; read-out: Measured growth inhibition IC50
MFE-280 = assay: as above; assay type: cell-based; conditions: Homo sapiens; cell line MFE-280, origin Endometrial; read-out: Measured growth inhibition IC50
RL95-2 = assay: as above; assay type: cell-based; conditions: Homo sapiens; cell line RL95-2, origin Endometrial; read-out: Measured growth inhibition IC50
SR = assay: as above; assay type: cell-based; conditions: Homo sapiens; cell line SR, origin B cell lymphoma; read-out: Measured growth inhibition IC50
MC/CAR = assay: as above; assay type: cell-based; conditions: cell line MC/CAR, origin Myeloma; read-out: Measured growth inhibition IC50
DB = assay: as above; assay type: cell-based; conditions: Homo sapiens; cell line DB, origin DLBCL (GC); read-out: Measured growth inhibition IC50
JVM-13 = assay: as above; assay type: cell-based; conditions: JVM13; cell line JVM-13, origin MCL; read-out: Measured growth inhibition IC50
Mino = assay: as above; assay type: cell-based; conditions: Homo sapiens; cell line Mino, origin MCL; read-out: Measured growth inhibition IC50
tumor = assay: Phase I trial of 2X-121 (NCT01618136), clinical response; assay type: in vivo, human; set-up: key to RECIST: SD = stable disease; PD = progressive disease; PR = partial response
Procedure: A Phase I trial of 2X-121 was conducted in the UK (clinicaltrial.gov number NCT01618136). 2X-121 was administered as daily oral doses of 50-800 mg. Of 41 patients enrolled in the Phase I trial, 35 had response assessment. Of these, 2 had partial response (PR) (5% overall response rate (ORR)) and 13 had stable disease (SD). Biopsies and BRCA analysis were voluntary and available from 16, and 7 patients, respectively.
Of the 16 patients with biopsies, 13 passed our quality control (QC) in the lab and were assayed on the Affymetrix HG-U133Plus2 array.
A statistical analysis plan was completed before initiation of blinded prediction of 2X-121 sensitivity on the 13 samples. In this analysis, the difference of the mean expression of genes in Table 3 were subtracted from the mean expression of genes in Table 2 for each patient to determine a difference score. This score was compared to a reference population of 819 breast cancer patients to convert the difference score to a percentile score. The percentile score is shown in Table 4 as “DRP score” and used for FIGS. 3 and 4, and Tables 5 and 6.

[1] = tested on: P-glycoprotein expressing cells; conditions: cited from earlier work
[2] = cited from earlier work
[3] = Patient 1, tumor pancreas, 2X-121 dose 600 mg
[4] = Patient 2, tumor mesothelioma, 2X-121 dose 200 mg
[5] = Patient 3, tumor pancreas, 2X-121 dose 600 mg
[6] = Patient 4, tumor intestine, 2X-121 dose 600 mg
[7] = Patient 5, tumor ovary, 2X-121 dose 600 mg
[8] = Patient 6, tumor lung, 2X-121 dose 50 mg
[9] = Patient 7, tumor pancreas, 2X-121 dose 50 mg
[10] = Patient 8, tumor adrenal, 2X-121 dose 400 mg
[11] = Patient 9, tumor kidney, 2X-121 dose 400 mg
[12] = Patient 10, tumor ovary, 2X-121 dose 800 mg
[13] = Patient 11, tumor ovary, 2X-121 dose 800 mg
[14] = Patient 12, tumor pancreas, 2X-121 dose 600 mg
[15] = Patient 13, tumor gallbladder, 2X-121 dose 600 mg
[16] = predicted resistant group (below DRP cutoff 50, N=7)

Structure (SMILES): O=c1[nH]nc2c3c(cccc13)N=C(CN1Cc3ccccc3C1)N2 [2X-121, 8-(isoindolin-2-ylmethyl)-2,9-dihydro-3H-pyridazino[3,4,5-de]quinazolin-3-one]
- IC50 (T47D): 7800 nM
- IC50 (HCC1143): 3700 nM
- IC50 (MDA-MB-453): 6200 nM
- IC50 (BT-20): 7900 nM
- IC50 (HCT-116): 1700 nM
- IC50 (SNU-423): 19000 nM
- IC50 (ECC-1): 680 nM
- IC50 (SNG-II): 5260 nM
- IC50 (HEC-88nu): 1140 nM
- IC50 (MFE-280): 770 nM
- IC50 (RL95-2): 2130 nM
- IC50 (SR): 260 nM
- IC50 (MC/CAR): 2300 nM
- IC50 (DB): 1600 nM
- IC50 (JVM-13): 7300 nM
- IC50 (Mino): 3400 nM
- response rate (tumor; BRCA mutated population, 1 of 6 responded): 16%
- TimeOS (tumor; Patient 1, tumor pancreas, 600 mg, StatusOS Death): 208 days
- TimePFS (tumor; Patient 1, tumor pancreas, 600 mg, StatusPFS censored): 42 days
- Diameter (%), change from baseline (tumor; [3]): −10%
- RECIST (tumor; [3]): SD
- TimeOS (tumor; Patient 2, tumor mesothelioma, 200 mg, StatusOS Death): 167 days
- TimePFS (tumor; Patient 2, tumor mesothelioma, 200 mg, StatusPFS Progression): 50 days
- Diameter (%), change from baseline (tumor; [4]): 1%
- RECIST (tumor; [4]): PD
- TimeOS (tumor; Patient 3, tumor pancreas, 600 mg, StatusOS censored): 406 days
- TimePFS (tumor; Patient 3, tumor pancreas, 600 mg, StatusPFS censored): 321 days
- Diameter (%), change from baseline (tumor; [5]): −22%
- RECIST (tumor; [5]): SD
- TimeOS (tumor; Patient 4, tumor intestine, 600 mg, StatusOS Death): 120 days
- TimePFS (tumor; Patient 4, tumor intestine, 600 mg, StatusPFS Progression): 59 days
- Diameter (%), change from baseline (tumor; [6]): 23%
- RECIST (tumor; [6]): PD
- TimeOS (tumor; Patient 5, tumor ovary, 600 mg, StatusOS censored): 379 days
- TimePFS (tumor; Patient 5, tumor ovary, 600 mg, StatusPFS Progression): 331 days
- Diameter (%), change from baseline (tumor; [7]): −83%
- RECIST (tumor; [7]): PR
- TimeOS (tumor; Patient 6, tumor lung, 50 mg, StatusOS censored): 466 days
- TimePFS (tumor; Patient 6, tumor lung, 50 mg, StatusPFS Progression): 155 days
- Diameter (%), change from baseline (tumor; [8]): 5%
- RECIST (tumor; [8]): SD
- TimeOS (tumor; Patient 7, tumor pancreas, 50 mg, StatusOS Death): 335 days
- TimePFS (tumor; Patient 7, tumor pancreas, 50 mg, StatusPFS censored): 262 days
- Diameter (%), change from baseline (tumor; [9]): 3%
- RECIST (tumor; [9]): SD
- TimeOS (tumor; Patient 8, tumor adrenal, 400 mg, StatusOS Death): 190 days
- TimePFS (tumor; Patient 8, tumor adrenal, 400 mg, StatusPFS Progression): 50 days
- Diameter (%), change from baseline (tumor; [10]): 40%
- RECIST (tumor; [10]): PD
- TimeOS (tumor; Patient 9, tumor kidney, 400 mg, StatusOS censored): 865 days
- TimePFS (tumor; Patient 9, tumor kidney, 400 mg, StatusPFS Progression): 276 days
- Diameter (%), change from baseline (tumor; [11]): −2%
- RECIST (tumor; [11]): SD
- TimeOS (tumor; Patient 10, tumor ovary, 800 mg, StatusOS Death): 301 days
- TimePFS (tumor; Patient 10, tumor ovary, 800 mg, StatusPFS Progression): 50 days
- Diameter (%), change from baseline (tumor; [12]): 26%
- RECIST (tumor; [12]): PD
- TimeOS (tumor; Patient 11, tumor ovary, 800 mg, StatusOS censored): 715 days
- TimePFS (tumor; Patient 11, tumor ovary, 800 mg, StatusPFS Progression): 315 days
- Diameter (%), change from baseline (tumor; [13]): −46%
- RECIST (tumor; [13]): PR
- TimeOS (tumor; Patient 12, tumor pancreas, 600 mg, StatusOS Death): 257 days
- TimePFS (tumor; Patient 12, tumor pancreas, 600 mg, StatusPFS Progression): 189 days
- Diameter (%), change from baseline (tumor; [14]): −7%
- RECIST (tumor; [14]): SD
- TimeOS (tumor; Patient 13, tumor gallbladder, 600 mg, StatusOS Death): 121 days
- TimePFS (tumor; Patient 13, tumor gallbladder, 600 mg, StatusPFS Progression): 41 days
- Diameter (%), change from baseline (tumor; [15]): 3%
- RECIST (tumor; [15]): PD
- patients with partial response (PR) (tumor; Phase I, daily oral 50-800 mg, of 35 patients with response assessment): 2
- overall response rate (ORR) (tumor; Phase I, daily oral doses of 50-800 mg, 41 enrolled, 35 with response assessment): 5%
- hazard ratio, progression-free survival (PFS) (tumor; above DRP cutoff of 50 (N=6) vs below (N=7), P=0.2 one-sided): 0.59
- hazard ratio, overall survival (OS) (tumor; above dose-adjusted DRP cutoff of 50 (N=6) vs below (N=7), P=0.04 one sided): 0.26
- response rate (tumor; all 13 patients analyzed with DRP (cutoff 0, 100% of population), 2/13): 15%
- response rate (tumor; patients above dose-adjusted DRP cutoff of 50, 2/6): 33%
- median PFS (tumor; [16]): 155 days
- median survival (tumor; [16]): 208 days
- median PFS (tumor; predicted sensitive group (above DRP cutoff 50, N=6)): 296 days
- activity in P-glycoprotein expressing cells [1]: active
- oral bioavailability [2]: orally bioavailable
